Laboratory results from PubChem BioAssay (NCI).
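Exposure lasted 48 hours, with cells grown in 96-well plates and compounds tested at five concentrations. GI50 marks 50% less growth. The concentration for full growth arrest is given as TGI.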

Key:
Assay in all cases: DTP human tumour cell line panel, 48 h
HCC-2998 colon = test system: HCC-2998 colon
HOP-92 NSCLC = test system: HOP-92 NSCLC
NCI-H522 lung = test system: NCI-H522 lung
OVCAR-3 ovarian = test system: OVCAR-3 ovarian
OVCAR-8 ovarian = test system: OVCAR-8 ovarian
SF-268 CNS = test system: SF-268 CNS
SK-OV-3 ovarian = test system: SK-OV-3 ovarian
TK-10 renal = test system: TK-10 renal
IGROV1 ovarian = test system: IGROV1 ovarian
MDA-MB-435 = test system: MDA-MB-435

SMILES | TGI (HCC-2998 colon) [µM] | TGI (HOP-92 NSCLC) [µM] | TGI (NCI-H522 lung) [µM] | TGI (OVCAR-3 ovarian) [µM] | TGI (OVCAR-8 ovarian) [µM] | TGI (SF-268 CNS) [µM] | TGI (SK-OV-3 ovarian) [µM] | TGI (TK-10 renal) [µM] | GI50 (HCC-2998 colon) [µM] | GI50 (IGROV1 ovarian) [µM] | TGI (IGROV1 ovarian) [µM] | GI50 (OVCAR-3 ovarian) [µM] | GI50 (OVCAR-8 ovarian) [µM] | GI50 (SF-268 CNS) [µM] | GI50 (TK-10 renal) [µM] | GI50 (HOP-92 NSCLC) [µM] | GI50 (MDA-MB-435) [µM] | TGI (MDA-MB-435) [µM] | GI50 (NCI-H522 lung) [µM] | GI50 (SK-OV-3 ovarian) [µM]
COc1cc(CC2c3cc(OC)c(OC)cc3CCN2C)c(C(=O)O)cc1OC (configuration not stated) | > 100 | > 100 | > 100 | > 100 | > 100 | > 100 | > 100 | > 100 |  |  |  |  |  |  |  |  |  |  |  | 
CC(=O)Nc1ccc(/C=C/C(=O)c2sc(-n3nc(-c4ccccc4)cc3-c3ccccc3)nc2C)cc1 | > 100 |  | > 100 | > 100 | > 100 | > 100 |  | > 100 | > 100 | > 100 | > 100 | > 100 | > 100 | > 100 | > 100 |  |  |  |  | 
CCOc1ccc(-c2nc3ccc(-c4nc5ccc(N6CCN(C)CC6)cc5[nH]4)cc3[nH]2)cc1OCC |  | 8.73 | 3.8 | 2.63 | 14.5 | 6.9 | 9.41 | 38.9 |  | 1.94 | 6.2 | 0.648 | 2.66 | 1.85 | 6.22 | 1.35 | 1.01 | 2.38 | 1.16 | 2.49
CCCCP1(=O)C=CC(Cl)=C(C)C1 (configuration not stated) | > 100 | > 100 | > 100 | > 100 | > 100 | > 100 |  | > 100 |  |  | > 100 |  |  |  |  |  |  |  |  | 
CC1SC(c2ccc(OCc3ccccc3)cc2)N(NC(=O)C(O)(c2ccccc2)c2ccccc2)C1=O (configuration not stated) | 4.99 | 4.74 |  | 6.1 | 38.6 | 15 | 33.2 | 14.3 | 1.92 | 2.4 | 11.5 | 2.36 | 12.7 | 3.66 | 2.57 | 1.14 | 3.52 | 13.8 |  | 9.49
O=C(c1ccccc1)N1CCc2c([nH]c3ccccc23)C1 | > 100 | > 100 | 64.8 | > 100 | > 100 |  | > 100 | > 100 |  |  | > 100 |  |  |  |  |  |  |  |  | 
N/C(=N\O)c1cn(C2OC(CO)C(O)C2O)c2ncnc(N)c12 (configuration not stated) | 1.43 |  | 0.401 | 9.76 | 2.59 | > 21.5 | 1.76 | 7.49 | 0.212 | 0.263 | 20.7 | 0.408 | 0.186 | 0.105 | 0.204 |  | 0.0758 | 0.263 | 0.157 | 0.0884
O=C(NC(=Nc1ccccc1)SCCSC(=Nc1ccccc1)NC(=O)c1ccccc1)c1ccccc1 | > 100 | 58.7 | 73 | > 100 | > 100 | > 100 |  | > 100 |  |  | > 100 |  |  |  |  |  |  |  |  | 
O=C(N=Nc1c(O)[nH]c2c(Cl)cc(Cl)cc12)C(=O)Nc1cccc(C(F)(F)F)c1 | > 100 | > 100 |  | > 100 | > 100 |  | > 100 | > 100 |  |  | > 100 |  |  |  |  |  |  | > 100 |  | 
